Test results from patent US20100160356A1, “NOVEL CYCLOBUTYL COMPOUNDS AS KINASE INHIBITORS” (priority 2006, published 2010).

Key:
IGF1 receptor (IGF1R) = biological target: T1, IGF1 receptor (IGF1R) (Homo sapiens, UniProt P08069); experiment: Inhibition of IGF1R (ELISA assay), IGF1-stimulated autophosphorylation in cells; assay type: cell-based; settings: human tumour cells stimulated with IGF1, read-out: IC50 IGF (ELISA)
T1 construct: endogenous in cells; host or cells: MCF-7 or Calu-6
Experimental: The stimulation induces an autophosphorylation of tyrosine residues in the cytoplasmatic IGF1R domain, which triggers signal transduction cascades, which result in inhibition of apoptosis and proliferation of the cells.
The amount of phosphorylated IGF1R is determined by a receptor-specific capture ELISA or an analogous LUMINEX assay. The IGF1R from cell lysates is bound to a 96-well ELISA plate or LUMINEX beads by means of a specific antibody (“capturing”), and the tyrosine phosphorylation is detected using a biotin-labelled anti-phosphotyrosine antibody and a streptavidin-peroxidase conjugate by a chemiluminescence method or by means of a fluorescence-labelled anti-phosphotyrosine antibody.
For determination of the activity of kinase inhibitors, cells are pretreated with increasing concentrations of these compounds for 45 min and subsequently stimulated using IGF1 for 5 min. As internal control, the biological activity of the ligand IGF1 is checked, and a concentration series of an IGF1R reference inhibitor is measured.

[1] = biological target: T2, FAK (focal adhesion kinase) (Homo sapiens, UniProt Q05397); experiment: Inhibition of FAK (ELISA assay), FAK phosphorylation in cells; assay type: cell-based; settings: human cells with FAK amplification
T2 construct: endogenous in cells; host or cells: Calu-6 or HT-29
Experimental: Activated FAK promotes the invasive growth of tumour cells and inhibits anoikis.
The amount of phosphorylated FAK is determined by a specific capture ELISA or an analogous LUMINEX assay. FAK from cell lysates is bound to a 96-well ELISA plate or LUMINEX beads by means of a specific antibody (“capturing”), and the tyrosine phosphorylation is detected using a biotin-labelled anti-phosphotyrosine antibody and a streptavidin-peroxidase conjugate by a chemiluminescence method or by means of a fluorescence-labelled anti-phosphotyrosine antibody.
For determination of the activity of kinase inhibitors, cells are pretreated with increasing concentrations of these compounds for 45 min, and the FAK phosphorylation is then determined. As internal control, a concentration series of a reference inhibitor is measured.

VEGF-2 = VEGF-2 (Homo sapiens, UniProt P35968); experiment: Inhibition of VEGF-2 (flashplate assay); assay type: biochemical; settings: flashplate method
Experimental: (§1) The test plates used are 384-well flashplate microtitre plates from Perkin Elmer (USA). The components of the kinase reaction are pipetted into the assay plate. The VEGF-2 kinase is incubated for 3 hr. with radioactively labelled ^33P-ATP in the presence and absence of test substances in a total volume of 100 μl at room temperature together with biotinylated poly(Glu, Tyr)4:1. The reaction is terminated using 25 μl of a 200 mM EDTA solution. After incubation for a further 30 min at room temperature, the supernatants are removed by suction, and the wells are washed three times with 100 μl of 0.9% NaCl solution each time. The radioactivity is measured using a Topcount scintillation counter (PerkinElmer, USA). IC50 values are calculated using the RS1 computer program.

TIE2 = TIE2 (Homo sapiens, UniProt Q02763); experiment: Inhibition of TIE2 (flashplate assay); assay type: biochemical; settings: flashplate method
Experimental: B4: inhibition of T1E2 (Flashplate Assay)
as §1, with “TIE2” for “VEGF-2”

SGK1 = biological target: T3, SGK1 (Homo sapiens, UniProt O00141); experiment: Inhibition of SGK1 (flashplate assay); assay type: biochemical; settings: flashplate method
T3 sequence (O00141 1-431): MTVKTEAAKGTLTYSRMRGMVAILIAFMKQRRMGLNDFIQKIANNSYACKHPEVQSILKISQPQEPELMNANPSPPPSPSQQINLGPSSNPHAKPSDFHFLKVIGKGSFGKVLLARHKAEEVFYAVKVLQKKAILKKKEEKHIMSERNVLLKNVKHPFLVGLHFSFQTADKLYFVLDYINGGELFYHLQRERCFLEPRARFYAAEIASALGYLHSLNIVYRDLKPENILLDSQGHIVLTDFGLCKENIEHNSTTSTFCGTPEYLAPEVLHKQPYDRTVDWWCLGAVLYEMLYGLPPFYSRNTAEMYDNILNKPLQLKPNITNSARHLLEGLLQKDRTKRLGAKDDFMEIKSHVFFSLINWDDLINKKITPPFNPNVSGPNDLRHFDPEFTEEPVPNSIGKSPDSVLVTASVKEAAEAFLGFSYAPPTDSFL
Experimental: as §1, with “SGK1” for “VEGF-2”

PDGFRβ = PDGFRβ (Homo sapiens, UniProt P09619); experiment: Inhibition of PDGFRβ (flashplate assay); assay type: biochemical; settings: flashplate method
Experimental: as §1, with “are 96-well” for “are 384-well”, “The PDGFRβ” for “The VEGF-2”, “temperature (here autophosphorylation of the kinase).” for “temperature together with biotinylated poly(Glu, Tyr)4:1.”, “using 150” for “using 25”, “a 60” for “a 200”, “with 200” for “with 100”

TGFβR1 = biological target: T4, TGFβR1 (Homo sapiens, UniProt P36897); experiment: Inhibition of TGFβR1 (flashplate assay); assay type: biochemical; settings: flashplate method
T4 sequence (P36897 34-503): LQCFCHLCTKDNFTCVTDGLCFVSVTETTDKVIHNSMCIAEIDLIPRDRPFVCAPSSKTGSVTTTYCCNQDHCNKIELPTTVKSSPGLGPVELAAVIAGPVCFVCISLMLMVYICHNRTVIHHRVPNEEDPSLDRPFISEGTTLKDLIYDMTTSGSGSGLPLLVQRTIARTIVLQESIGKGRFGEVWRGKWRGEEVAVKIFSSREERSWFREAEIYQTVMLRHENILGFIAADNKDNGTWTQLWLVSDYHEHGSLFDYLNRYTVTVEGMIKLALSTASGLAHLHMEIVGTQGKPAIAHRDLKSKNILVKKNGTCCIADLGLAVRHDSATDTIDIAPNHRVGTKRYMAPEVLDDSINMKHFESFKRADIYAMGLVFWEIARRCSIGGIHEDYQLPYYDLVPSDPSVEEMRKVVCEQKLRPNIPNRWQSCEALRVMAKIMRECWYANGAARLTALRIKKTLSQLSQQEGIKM
Experimental: The test is carried out as described in Example B1b for IGF1R. A biotinylated is added to the TGFβR1 kinase.
The kinase assay is carried out as a 384-well flashplate assay.
The components of the kinase reaction are pipetted into the assay plate. The TGFβR1 kinase is incubated for 45 min with radioactively labelled ^33P-ATP in the presence and absence of test substances together with biotinylated substrate in a total volume of 35 μl. The reaction is terminated using 25 μl of 200 mM EDTA solution, removed by suction after 30 min at room temperature, and the wells are washed with three times with 100 μl of 0.9% NaCl solution each time. The radioactivity is measured using a Topcount scintillation counter (PerkinElmer, USA). IC50 values are calculated using the RS1 computer program.

IGF1R = IGF1R (Homo sapiens, UniProt P08069); experiment: Inhibition of IGF1R (flashplate assay); assay type: biochemical; settings: flashplate method
Experimental: as §1, with “are 96-well” for “are 384-well”, “The IGF1R” for “The VEGF-2”, “for 1” for “for 3”

CHK = experiment: Inhibition of CHK (flashplate method); assay type: biochemical
insulin receptor (InsR) = biological target: T5, insulin receptor (InsR) (Homo sapiens, UniProt P06213); experiment: Inhibition of InsR (ELISA assay), insulin-stimulated autophosphorylation in cells; assay type: cell-based; settings: human cells stimulated with insulin
T5 construct: endogenous in cells; host or cells: HepG2
Experimental: Cultivated human cells which express the insulin receptor (InsR) (for example HepG2) are stimulated using human insulin, the natural ligand of InsR. The stimulation induces autophosphorylation of tyrosine residues in the cytoplasmatic InsR domain, which triggers signal transduction cascades, which initiate various biological reactions of the cells. The amount of phosphorylated InsR is determined by a receptor-specific capture ELISA or an analogous LUMINEX assay. The InsR from cell lysates is bound to a 96-well ELISA plate or LUMINEX beads by means of a specific antibody (“capturing”), and the tyrosine phosphorylation is detected using a biotin-labelled anti-phosphotyrosine antibody and a streptavidin-peroxidase conjugate by a chemiluminescence method or by means of a fluorescence-labelled anti-phosphotyrosine antibody. For determination of the activity of kinase inhibitors, cells are pretreated with increasing concentrations of these compounds for 45 min and subsequently stimulated using insulin for 5 min. As internal control, the biological activity of the ligand insulin is checked, and a concentration series of a reference inhibitor is measured.

Met = Met (Homo sapiens, UniProt P08581); experiment: Inhibition of Met (flashplate method); assay type: biochemical

VEGF-2, sequence (P35968 20-1356): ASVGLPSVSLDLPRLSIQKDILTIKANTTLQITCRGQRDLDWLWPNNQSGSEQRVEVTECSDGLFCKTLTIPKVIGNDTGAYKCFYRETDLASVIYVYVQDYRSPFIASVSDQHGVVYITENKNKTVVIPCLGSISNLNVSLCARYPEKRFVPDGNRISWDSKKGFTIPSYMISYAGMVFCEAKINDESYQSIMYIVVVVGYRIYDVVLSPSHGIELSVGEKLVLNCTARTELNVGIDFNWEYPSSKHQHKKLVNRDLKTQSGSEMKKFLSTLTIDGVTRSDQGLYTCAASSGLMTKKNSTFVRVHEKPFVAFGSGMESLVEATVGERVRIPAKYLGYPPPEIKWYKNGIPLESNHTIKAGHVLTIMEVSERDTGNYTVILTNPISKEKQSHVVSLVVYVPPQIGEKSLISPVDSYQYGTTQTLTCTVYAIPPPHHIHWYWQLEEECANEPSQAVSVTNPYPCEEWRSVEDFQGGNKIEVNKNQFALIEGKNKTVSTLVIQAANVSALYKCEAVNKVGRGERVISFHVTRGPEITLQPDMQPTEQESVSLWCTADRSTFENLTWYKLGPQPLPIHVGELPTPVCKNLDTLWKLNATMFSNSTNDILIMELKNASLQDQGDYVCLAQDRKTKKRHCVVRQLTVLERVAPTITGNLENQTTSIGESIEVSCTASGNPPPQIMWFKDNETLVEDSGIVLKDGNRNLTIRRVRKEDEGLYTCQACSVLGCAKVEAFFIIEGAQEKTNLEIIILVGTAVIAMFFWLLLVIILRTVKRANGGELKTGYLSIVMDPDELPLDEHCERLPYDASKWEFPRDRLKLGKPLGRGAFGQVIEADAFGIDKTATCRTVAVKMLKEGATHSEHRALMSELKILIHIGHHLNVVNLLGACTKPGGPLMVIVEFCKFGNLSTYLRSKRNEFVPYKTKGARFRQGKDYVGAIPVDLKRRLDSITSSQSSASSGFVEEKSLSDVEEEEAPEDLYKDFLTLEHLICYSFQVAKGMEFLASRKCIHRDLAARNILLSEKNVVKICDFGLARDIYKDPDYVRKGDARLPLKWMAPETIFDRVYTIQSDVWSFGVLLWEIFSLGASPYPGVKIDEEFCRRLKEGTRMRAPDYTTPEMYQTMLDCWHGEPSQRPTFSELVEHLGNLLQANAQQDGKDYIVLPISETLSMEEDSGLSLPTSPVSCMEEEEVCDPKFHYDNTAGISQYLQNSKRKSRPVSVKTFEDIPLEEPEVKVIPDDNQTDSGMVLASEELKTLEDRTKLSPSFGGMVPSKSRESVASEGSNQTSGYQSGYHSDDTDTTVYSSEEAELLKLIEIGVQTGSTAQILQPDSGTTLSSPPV
IGF1R, sequence (P08069 31-1367, species assumed): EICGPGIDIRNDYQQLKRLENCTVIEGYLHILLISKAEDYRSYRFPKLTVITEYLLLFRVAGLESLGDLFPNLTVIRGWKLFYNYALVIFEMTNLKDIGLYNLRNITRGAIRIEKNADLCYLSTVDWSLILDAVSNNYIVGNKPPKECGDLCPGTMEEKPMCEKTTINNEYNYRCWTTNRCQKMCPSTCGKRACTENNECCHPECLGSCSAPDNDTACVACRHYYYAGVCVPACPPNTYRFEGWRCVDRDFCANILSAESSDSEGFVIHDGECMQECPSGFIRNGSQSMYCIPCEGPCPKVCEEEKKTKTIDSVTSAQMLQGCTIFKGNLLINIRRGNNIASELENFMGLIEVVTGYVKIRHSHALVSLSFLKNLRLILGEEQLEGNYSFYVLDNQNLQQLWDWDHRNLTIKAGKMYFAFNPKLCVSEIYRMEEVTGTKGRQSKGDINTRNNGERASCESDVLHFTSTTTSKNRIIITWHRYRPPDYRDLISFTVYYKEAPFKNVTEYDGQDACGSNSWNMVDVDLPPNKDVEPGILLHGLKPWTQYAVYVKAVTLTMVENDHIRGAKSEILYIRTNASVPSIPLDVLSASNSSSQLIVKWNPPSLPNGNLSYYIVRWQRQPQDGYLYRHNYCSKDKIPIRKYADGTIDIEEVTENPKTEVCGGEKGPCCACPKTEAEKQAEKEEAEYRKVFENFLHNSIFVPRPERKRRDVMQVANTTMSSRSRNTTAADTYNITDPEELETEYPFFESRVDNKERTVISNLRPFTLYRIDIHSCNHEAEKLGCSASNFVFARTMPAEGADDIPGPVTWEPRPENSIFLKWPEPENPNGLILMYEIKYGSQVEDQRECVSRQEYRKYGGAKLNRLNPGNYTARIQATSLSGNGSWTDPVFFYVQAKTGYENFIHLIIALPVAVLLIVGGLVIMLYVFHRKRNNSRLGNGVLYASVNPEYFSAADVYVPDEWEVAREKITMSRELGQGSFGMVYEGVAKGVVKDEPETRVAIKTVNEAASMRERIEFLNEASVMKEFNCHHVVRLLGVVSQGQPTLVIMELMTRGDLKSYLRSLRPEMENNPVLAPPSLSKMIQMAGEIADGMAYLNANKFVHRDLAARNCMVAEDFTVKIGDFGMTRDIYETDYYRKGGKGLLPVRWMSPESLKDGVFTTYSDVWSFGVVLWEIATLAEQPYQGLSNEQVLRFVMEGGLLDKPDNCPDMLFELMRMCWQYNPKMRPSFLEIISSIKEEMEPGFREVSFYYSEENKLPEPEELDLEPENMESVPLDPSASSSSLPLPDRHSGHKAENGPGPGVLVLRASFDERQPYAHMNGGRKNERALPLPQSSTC
T1 sequence (P08069 31-1367): as the sequence (P08069 31-1367, species assumed) above
PDGFRβ, sequence (P09619 33-1106, species assumed): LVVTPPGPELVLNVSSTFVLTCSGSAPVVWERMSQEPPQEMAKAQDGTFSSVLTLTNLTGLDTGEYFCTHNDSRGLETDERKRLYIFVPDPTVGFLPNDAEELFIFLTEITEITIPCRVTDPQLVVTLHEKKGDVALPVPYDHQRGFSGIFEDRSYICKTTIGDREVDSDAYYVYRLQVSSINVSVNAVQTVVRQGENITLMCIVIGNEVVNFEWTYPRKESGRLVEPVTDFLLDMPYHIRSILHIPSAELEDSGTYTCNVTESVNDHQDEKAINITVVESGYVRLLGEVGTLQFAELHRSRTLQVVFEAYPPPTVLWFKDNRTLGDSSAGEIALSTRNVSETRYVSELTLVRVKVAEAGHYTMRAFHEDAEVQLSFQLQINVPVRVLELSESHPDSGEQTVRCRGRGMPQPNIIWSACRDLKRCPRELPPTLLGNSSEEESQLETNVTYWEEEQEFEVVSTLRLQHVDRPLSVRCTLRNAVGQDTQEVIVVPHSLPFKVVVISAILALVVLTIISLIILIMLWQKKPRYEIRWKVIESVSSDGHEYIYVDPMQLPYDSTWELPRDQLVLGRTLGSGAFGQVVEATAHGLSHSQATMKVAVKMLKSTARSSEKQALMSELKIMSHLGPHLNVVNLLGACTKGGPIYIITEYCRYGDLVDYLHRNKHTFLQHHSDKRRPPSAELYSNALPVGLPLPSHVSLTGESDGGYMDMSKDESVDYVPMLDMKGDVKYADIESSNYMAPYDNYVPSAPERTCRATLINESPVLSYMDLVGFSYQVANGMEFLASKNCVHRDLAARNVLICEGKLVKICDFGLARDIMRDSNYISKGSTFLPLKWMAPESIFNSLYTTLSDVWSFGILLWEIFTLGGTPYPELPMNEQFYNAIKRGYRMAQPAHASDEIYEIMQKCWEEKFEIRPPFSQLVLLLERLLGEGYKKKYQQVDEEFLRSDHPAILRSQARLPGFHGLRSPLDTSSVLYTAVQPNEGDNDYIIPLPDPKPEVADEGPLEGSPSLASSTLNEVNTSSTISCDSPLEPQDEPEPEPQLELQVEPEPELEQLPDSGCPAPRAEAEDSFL
TIE2, sequence (Q02763 23-1124, species assumed): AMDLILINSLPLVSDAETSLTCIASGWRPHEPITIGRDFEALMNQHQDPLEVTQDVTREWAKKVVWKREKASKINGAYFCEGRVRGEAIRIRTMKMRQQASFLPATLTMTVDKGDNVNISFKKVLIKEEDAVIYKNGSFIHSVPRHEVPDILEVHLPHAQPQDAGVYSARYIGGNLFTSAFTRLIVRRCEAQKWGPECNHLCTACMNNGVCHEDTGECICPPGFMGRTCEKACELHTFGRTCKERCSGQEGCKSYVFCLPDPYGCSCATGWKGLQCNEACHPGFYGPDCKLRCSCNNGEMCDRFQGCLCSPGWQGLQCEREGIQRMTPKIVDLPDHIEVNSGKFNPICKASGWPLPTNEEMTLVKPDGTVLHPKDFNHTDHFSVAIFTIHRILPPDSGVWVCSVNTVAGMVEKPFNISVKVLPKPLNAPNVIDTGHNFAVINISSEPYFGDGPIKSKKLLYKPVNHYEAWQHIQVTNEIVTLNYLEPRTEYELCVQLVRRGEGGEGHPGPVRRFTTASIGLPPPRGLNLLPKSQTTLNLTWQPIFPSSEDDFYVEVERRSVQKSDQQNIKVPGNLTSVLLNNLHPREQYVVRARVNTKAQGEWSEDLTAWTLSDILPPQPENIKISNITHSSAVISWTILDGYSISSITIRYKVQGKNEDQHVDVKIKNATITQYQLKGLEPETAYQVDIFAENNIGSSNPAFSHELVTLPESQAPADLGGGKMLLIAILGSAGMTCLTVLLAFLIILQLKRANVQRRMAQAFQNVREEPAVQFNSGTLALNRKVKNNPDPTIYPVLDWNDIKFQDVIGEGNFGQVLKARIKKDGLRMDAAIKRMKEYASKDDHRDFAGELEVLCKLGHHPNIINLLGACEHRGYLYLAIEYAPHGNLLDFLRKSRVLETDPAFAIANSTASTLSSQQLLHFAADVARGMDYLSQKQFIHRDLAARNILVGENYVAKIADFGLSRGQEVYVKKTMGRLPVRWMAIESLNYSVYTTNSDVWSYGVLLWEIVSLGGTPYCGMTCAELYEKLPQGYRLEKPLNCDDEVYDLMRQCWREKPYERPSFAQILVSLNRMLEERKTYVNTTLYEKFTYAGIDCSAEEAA

| Compound | IC50 (IGF1 receptor (IGF1R)) [nM] | IC50 [1] [nM] | IC50 (VEGF-2) [nM] | IC50 (TIE2) [nM] | IC50 (SGK1) [nM] | IC50 (PDGFRβ) [nM] | IC50 (TGFβR1) [nM] | melting point [°C] | IC50 (IGF1R) [nM] | IC50 (CHK) [nM] | IC50 (insulin receptor (InsR)) [nM] | IC50 (Met) [nM] |
| --- | --- | --- | --- | --- | --- | --- | --- | --- | --- | --- | --- | --- |
| NCC1CC(n2cc(-c3ccsc3)c3c(N)ncnc32)C1 (stereo not shown) [Compound 40] | 18000 | 2600 | 1800 | 9300 | 8400 | 750 | 2200 | 109 to 111 | – | – | – | – |
| NCC1CC(n2cc(-c3ccoc3)c3c(N)ncnc32)C1 (stereo not shown) [Compound 39] | – | 15000 | – | – | 2500 | – | 8500 | – | – | – | – | – |
| Nc1ncnc2c1c(-c1ccc3occc3c1)cn2C1CC(CNC(=O)C(F)(F)F)C1 (stereo not shown) [Compound 64] | – | 3600 | 1060 | 2400 | 4400 | 2450 | 330 | 92 to 93.5 | – | – | – | – |
| NCC1CC(n2cc(I)c3c(N)ncnc32)C1 (stereo not shown) [Compound 52] | 7500 | – | 715 | 2600 | 250 | 1100 | – | – | – | – | – | – |
| NCC1CC(n2cc(C#CCO)c3c(N)ncnc32)C1 (stereo not shown) [Compound 47] | – | – | – | – | 2550 | – | – | – | – | – | – | – |
| NCC1CC(n2cc(-c3cccc(NCc4ccccc4)c3)c3c(N)ncnc32)C1 (stereo not shown) [Compound 25] | 3000 | – | 390 | 1500 | 3600 | 1200 | 3700 | 204 to 206 | 820 | – | – | – |
| NCC1CC(n2cc(-c3ccco3)c3c(N)ncnc32)C1 (stereo not shown) [Compound 38] | 17000 | 18000 | 2300 | – | 2600 | – | – | – | – | 8800 | – | – |
| C[Si](C)(COc1cccc(-c2cn(C3CC(CN)C3)c3ncnc(N)c23)c1)c1ccccc1 (stereo not shown) [Compound 8] | 810 | 16000 | – | – | – | – | – | – | 320 | – | 9500 | 1100 |
| NCC1CC(n2cc(-c3cccc(N)c3)c3c(N)ncnc32)C1 (stereo not shown) [Compound 23] | 14000 | 1210 | – | – | 1950 | – | 810 | – | 7600 | – | – | – |
| C[Si](C)(C)COc1cccc(-c2cn(C3CC(CN)C3)c3ncnc(N)c23)c1 (stereo not shown) [Compound 9] | 570 | 14000 | – | – | – | – | – | – | 130 | – | 5500 | – |
| NCC1CC(n2cc(-c3cccs3)c3c(N)ncnc32)C1 (stereo not shown) [Compound 41] | 6200 | 3800 | 1200 | 4800 | 1600 | – | 2700 | – | 5600 | – | – | – |
| Cc1csc(-c2cn(C3CC(CN)C3)c3ncnc(N)c23)c1 (stereo not shown) [Compound 70] | 8500 | 7100 | – | 2600 | 4450 | 2500 | 1400 | – | – | – | – | – |
